Measurements from PMC9699072 (Molecules, 2022).
Values joined by “and” are separate entries in the source; they are usually repeats but may differ in a detail not shown here. Identical values can stand only once. Counter-ions that a name gives are not always drawn.

Experiments:
[1] = ORAC-FL (oxygen radical absorbance capacity) assay; format: biochemical; details: mean ± SEM, n = 3, 2 h, 10 μM compound and Trolox
Source text: In the oxygen radical absorbance capacity (ORAC-FL) assay, 2,2′-azobis-(2-methylpropionamidine) dihydrochloride (AAPH) is used as a free peroxyl radical generator, and fluorescein (FL) is used as a fluorescent probe. The method is based on measuring the decrease in the intensity of fluorescence with time, which characterizes the degree of decay of the fluorescent probe under the influence of peroxyl radicals. In the presence of antioxidants, the degree of decay of the fluorescent probe decreases and, accordingly, the fluorescence intensity increases. The results are expressed as TE (Trolox equivalents).
The ORAC assay utilizes a biologically relevant radical source, 2,2′-azobis(2-amidinopropane) dihydrochloride (AAPH)-derived peroxyl radicals. Thus, it is a more physiologically relevant assay than ABTS and FRAP.
The oxygen radical absorbance capacity (ORAC) was determined by the ability of compounds to protect fluorescein (FL) from peroxyl radicals that are generated by AAPH according to the known method with minor variations. The reaction was carried out at 37 °C in black 96-well plates (SPL life sciences), and the final volume of the reaction mixture was 200 µL per well. The fluorescence was recorded by Tecan M1000 PRO microplate reader (Switzerland) at 485 nm excitation and 520 nm emission.
The 0.7 mM fluorescein sodium salt stock solution in PBS pH 7.4 (137 mM sodium chloride, 2.7 mM potassium chloride, and 10 mM phosphate buffer) was prepared and stored at 4–5 °C no longer than one month. An aliquot of the fluorescein stock solution was further diluted with PBS immediately before each assay to yield a 70 nM working solution. The 133 mM AAPH solution in PBS was prepared immediately before use. The test compounds and Trolox standard were dissolved in DMSO to 400 μM. The final concentration was 10 μM for all of the samples.
The blank was composed of 15 μL PBS pH 7.4, 5 μL DMSO (final concentration: 2.5% (v/v)), 120 μL FL, and 60 μL AAPH, and it was included in each assay. PBS pH 7.4 (15 μL), antioxidant (the test compound or Trolox, 5 μL), and FL (120 μL, final concentration: 42 nM) solutions were placed in a black 96-well microplate and were pre-incubated for 15 min at 37 °C. AAPH solution (60 μL, final concentration 40 mM) was then added rapidly using a multichannel pipette. The fluorescence was recorded every minute for 2 h. A Trolox standard curve was also obtained in each assay. All reactions were carried out in quadruplicate, and two to four independent assays were performed for each sample.
Antioxidant curves (fluorescence vs. time) were first normalized to the curve of the blank (without antioxidant) corresponding to the same assay, and the net AUC corresponding to a sample was calculated by subtracting the AUC corresponding to the blank. The ORAC value was obtained by dividing the latter curve by the Trolox curve obtained in the same assay at 10 μM concentrations of compounds and Trolox. Final ORAC values, Trolox equivalents (TE), were expressed as μmol test compounds per μmol Trolox, where the value of TE for Trolox was taken as 1. Data were expressed as means ± SEM.

porcine liver CES = test: Inhibition of CES (4-nitrophenol acetate hydrolysis); format: biochemical; details: ± SEM; for IC50: n = 3; for CES % inhibition at 20 μM: n = 3, 10 min incubation 25 °C
Source text: Given the available literature data on the ability of pyrazole derivatives to inhibit acetylcholinesterase (AChE) and human carboxylesterase-1 (CES), we performed an investigation of the esterase profile for new compounds 1a–j and 4a–j, including an evaluation of their inhibitory effect on the standard enzymes set: human erythrocyte AChE, equine serum butyrylcholinesterase (BChE), and porcine liver CES (Table 2). The applicability of this set of enzymes was shown by us earlier.
Human erythrocyte acetylcholinesterase (AChE, EC 3.1.1.7), equine serum butyrylcholinesterase (BChE, EC 3.1.1.8), porcine liver carboxylesterase (CES, EC 3.1.1.1), acetylthiocholine iodide (ATCh), butyrylthiocholine iodide (BTCh), 4-nitrophenol acetate (4-NPA), and 5,5′-dithio-bis-(2-nitrobenzoic acid) (DTNB) were purchased from Sigma-Aldrich (Saint Louis, MO, USA).
All the kinetic experiments were performed under standard conditions, according to the protocol of IPAC RAS for a reversible inhibitors study.
Ellman’s colorimetric assay was used to measure AChE and BChE activity in 0.1 M K/Na phosphate buffer at pH 7.5, 25 °C [86]. Final concentrations of reactants were 0.33 mM DTNB, 0.02 unit/mL of AChE or BChE, and 1 mM of substrate (ATCh or BTCh, respectively). Reagent blanks consisted of reaction mixtures without enzyme to assess non-enzymatic hydrolysis of substrates. Porcine liver CES activity was assessed colorimetrically in 0.1 M K/Na phosphate buffer with pH 8.0 at 25 °C, by measuring the absorbance of 4-nitrophenol at 405 nm. Final enzyme and substrate (4-NPA) concentrations were 0.02 unit/mL and 1 mM, respectively. Reagent blanks included all constituents except enzyme.
Test compounds were dissolved in DMSO. Reaction mixtures contained a final DMSO concentration of 2% (v/v). Enzyme inhibition was first assessed at a single concentration of 20 µM for each compound after a 10 min incubation at 25 °C in three separate experiments. Compounds inhibiting the enzyme by more than 30% were then selected for determination of the IC50 (inhibitor concentration resulting in 50% inhibition of control enzyme activity). […] Substrate was then added, and residual enzyme activity relative to an inhibitor-free control was measured using a FLUOStar Optima microplate reader (LabTech, Ortenberg, Germany).

Compound | ORAC-FL TE (Trolox equivalent) [1] | IC50 (porcine liver CES) | CES % inhibition at 20 μM (porcine liver CES) [%] | ORAC-FL TE (Trolox equivalent) ([1]; listed as APH) [TE]
Cl.Nc1c(C(F)(F)F)nn(-c2ccccc2)c1O [4a, 4-Amino-3-(trifluoromethyl)-1-phenyl-1H-pyrazol-5-ol hydrochloride] | 3.49 TE and 3.49 ± 0.16 TE | 44.9 ± 4 µM | – | –
Cl.Nc1c(C(F)(F)F)n[nH]c1O [4e, 4-Amino-3-(trifluoromethyl)-1H-pyrazol-5-ol hydrochloride] | 0.90 ± 0.19 TE | – | – | –
O=C1NN=C(C(F)(F)C(F)(F)F)/C1=N/O [1g] | 1.87 ± 0.04 TE | – | 7.8 ± 1.4 | –
Oc1cc(C(F)(F)F)nn1-c1ccccc1 [CF3-EDA, 3-trifluoromethyl-1-phenylpyrazol-5-ol, reference compound] | 3.89 TE and 3.89 ± 0.04 TE | – | 7.6 ± 1.2 | –
Cl.Nc1c(C(F)(F)C(F)(F)C(F)(F)F)n[nH]c1O.O [4h, 4-Amino-3-(heptafluoropropyl)-1H-pyrazol-5-ol hydrate hydrochloride] | 0.63 ± 0.04 TE | 81.8 ± 7.3 µM | – | –
Cl.Nc1c(C(F)(F)C(F)(F)F)n[nH]c1O.O [4g, 4-Amino-3-(pentafluoroethyl)-1H-pyrazol-5-ol hydrate hydrochloride] | 0.54 ± 0.03 TE | – | 6.7 ± 1.2 | –
CC1=NNC(=O)/C1=N\O [1j] | 2.85 ± 0.28 TE | – | – | –
O=C1NN=C(C(F)(F)F)/C1=N/O [1e] | 0.98 ± 0.03 TE | – | 5.9 ± 1.1 | –
Cc1nn(-c2ccccc2)c(O)c1N.Cl.O [4d, 4-Amino-3-methyl-1-phenyl-1H-pyrazol-5-ol hydrochloride hydrate] | 4.39 ± 0.04 TE | 98.7 ± 8.8 µM | – | 4.39
Cl.Nc1c(C(F)(F)C(F)(F)F)nn(-c2ccccc2)c1O.O [4b, 4-Amino-3-(pentafluoroethyl)-1-phenyl-1H-pyrazol-5-ol hydrate hydrochloride] | 2.12 ± 0.17 TE | – | 16.6 ± 1.4 | –
3-methyl-1-phenyl-2-pyrazolin-5-one [EDA, reference compound] | 3.71 TE and 3.71 ± 0.06 TE | – | 8.4 ± 0.7 | –
Nc1c(C(F)(F)C(F)(F)C(F)(F)C(F)(F)F)nn(-c2ccccc2)c1O [4c, 5-Hydroxy-1-phenyl-3-(nonafluorobuthyl)-1H-pyrazol-4-ammonium hydrochloride] | 2.82 ± 0.2 TE | 10 µM and 10.2 µM | – | –
Cc1n[nH]c(O)c1N.Cl [4j, 4-Amino-3-methyl-1H-pyrazol-5-ol hydrochloride] | 2.06 ± 0.16 TE | – | 4.3 ± 0.9 | –
Cl.Nc1c(C(F)(F)C(F)(F)C(F)(F)C(F)(F)F)n[nH]c1O.O [4i, 4-Amino-3-(nonafluorobutyl)-1H-pyrazol-5-ol hydrate hydrochloride] | 1.83 ± 0.02 TE | 22 µM and 21.8 µM | – | –
